According to US20160326135A1, “2-HETARYL-PYRIDAZINONE DERIVATIVES AND THEIR USE AS HERBICIDES” (BAYER CROPSCIENCE AKTIENGESELLSCHAFT, priority 2013, published 2016):

Legend:
Assay type in all cases: in vivo
Setaria viridis [1] = test: Pre-emergence herbicidal action against harmful plants; conditions: application rate 320 g/ha, scored visually after 3 weeks, 100% = plants have died, 0% = like control plants
From the text: (§1) Seeds of monocotyledonous and dicotyledonous weed plants and crop plants are laid out in wood-fiber pots in sandy loam and covered with soil. The compounds of the invention, formulated in the form of wettable powders (WP) or as emulsion concentrates (EC), are then applied to the surface of the covering soil in the form of an aqueous suspension or emulsion at a water application rate equating to 600 to 800 I/ha, with addition of 0.2% wetting agent. After the treatment, the pots are placed in a greenhouse and kept under good growth conditions for the trial plants. The damage to the trial plants is scored visually after a trial duration of 3 weeks by comparison with untreated controls (herbicidal activity in percent (%): 100% efficacy=the plants have died, 0% efficacy=like control plants). In this trial, for example, compound no.

Echinochloa crus galli [2] = test: as above; conditions: application rate 320 g/ha, scored visually after 3 weeks, 100% = plants have died, 0% = like control plants
From the text: as §1

Matricaria inodora [3] = test: as above; conditions: application rate 320 g/ha, scored visually after 3 weeks, 100% = plants have died, 0% = like control plants
From the text: as §1

Abutilon theophrasti = test: as above; conditions: application rate 320 g/ha, scored visually after 3 weeks, 100% = plants have died, 0% = like control plants
From the text: as §1

Viola tricolor [4] = test: as above; conditions: application rate 320 g/ha, scored visually after 3 weeks, 100% = plants have died, 0% = like control plants
From the text: as §1

Veronica persica [5] = test: as above; conditions: application rate 320 g/ha, scored visually after 3 weeks, 100% = plants have died, 0% = like control plants
From the text: as §1

Stellaria media [6] = test: as above; conditions: application rate 320 g/ha, scored visually after 3 weeks, 100% = plants have died, 0% = like control plants
From the text: as §1

Amaranthus retroflexus [7] = test: as above; conditions: application rate 320 g/ha, scored visually after 3 weeks, 100% = plants have died, 0% = like control plants
From the text: as §1

Setaria viridis [8] = test: Post-emergence herbicidal action against harmful plants; conditions: application rate 80 g/ha, scored visually after about 3 weeks, 100% = plants have died, 0% = like control plants
Method: (§2) Seeds of monocotyledonous and dicotyledonous weed and crop plants are laid out in sandy loam in wood-fiber pots, covered with soil and cultivated in a greenhouse under good growth conditions. 2 to 3 weeks after sowing, the trial plants are treated at the one-leaf stage. The compounds of the invention, formulated in the form of wettable powders (WP) or as emulsion concentrates (EC), are then sprayed onto the green parts of the plants in the form of an aqueous suspension or emulsion at a water application rate equating to 600 to 800 I/ha, with addition of 0.2% wetting agent. After the trial plants have been left to stand in a greenhouse under optimal growth conditions for about 3 weeks, the efficacy of the formulations is scored visually in comparison to untreated controls (herbicidal action in percent (%): 100% efficacy=the plants have died, 0% efficacy=like control plants). In this trial, for example, compound no.

Echinochloa crus galli [9] = test: as above; conditions: application rate 80 g/ha, scored visually after about 3 weeks, 100% = plants have died, 0% = like control plants
Method: as §2

Matricaria inodora [10] = test: as above; conditions: application rate 80 g/ha, scored visually after about 3 weeks, 100% = plants have died, 0% = like control plants
Method: as §2

Ipomoea purpurea = test: as above; conditions: application rate 80 g/ha, scored visually after about 3 weeks, 100% = plants have died, 0% = like control plants
Method: as §2

Viola tricolor [11] = test: as above; conditions: application rate 80 g/ha, scored visually after about 3 weeks, 100% = plants have died, 0% = like control plants
Method: as §2

Veronica persica [12] = test: as above; conditions: application rate 80 g/ha, scored visually after about 3 weeks, 100% = plants have died, 0% = like control plants
Method: as §2

Stellaria media [13] = test: as above; conditions: application rate 80 g/ha, scored visually after about 3 weeks, 100% = plants have died, 0% = like control plants
Method: as §2

Amaranthus retroflexus [14] = test: as above; conditions: application rate 80 g/ha, scored visually after about 3 weeks, 100% = plants have died, 0% = like control plants
Method: as §2

Cc1cnn(-c2ccc(C(F)(F)F)c(=O)n2C)c(=O)c1O [1-3, 4-hydroxy-5-methyl-2-(1-methyl-3-(trifluoromethyl)pyrid-2-on-6-yl)-pyridazin-3-one]
at least 80%: herbicidal activity in percent (efficacy) (Setaria viridis [1]) | herbicidal activity in percent (efficacy) (Echinochloa crus galli [2]) | herbicidal activity in percent (efficacy) (Matricaria inodora [3]) | herbicidal activity in percent (efficacy) (Abutilon theophrasti) | herbicidal activity in percent (efficacy) (Viola tricolor [4]) | herbicidal activity in percent (efficacy) (Veronica persica [5]) | herbicidal activity in percent (efficacy) (Stellaria media [6]) | herbicidal activity in percent (efficacy) (Amaranthus retroflexus [7]) | herbicidal action in percent (efficacy) (Setaria viridis [8]) | herbicidal action in percent (efficacy) (Echinochloa crus galli [9]) | herbicidal action in percent (efficacy) (Matricaria inodora [10]) | herbicidal action in percent (efficacy) (Ipomoea purpurea) | herbicidal action in percent (efficacy) (Viola tricolor [11]) | herbicidal action in percent (efficacy) (Veronica persica [12]) | herbicidal action in percent (efficacy) (Stellaria media [13]) | herbicidal action in percent (efficacy) (Amaranthus retroflexus [14])
